In patent publication US7799915B2, “Anilino-pyrimidine analogs” (Wyeth LLC, priority 2004, dated 2010):

What follows are compounds tested on IκBα in Hela cells treated with TNFα (assay: Western Analysis of IκBα). Conditions: Hela cells treated with compounds for 30 min before addition of TNFα (10 μg/ml), harvested after one hour; mouse anti-IκBα antibody.
Format: cell-based
Experimental: Hela cells are plated at 6-well plate for 24 hours and treated with compounds for 30 min before the addition of TNFα (10 μg/ml). After one hour, Hela cells are harvested in MPER reagent (Pierce, Rockford, Ill.) containing 400 mM NaCl. Protein from all samples is quantified by the Bradford method. Cell lysates containing 30 μg of protein are electrophoresed on a 12% SDS-PAGE gel and transferred to a PVDF membrane using a Bio Rad liquid transfer apparatus. The PVDF membrane is incubated in TBST (TBS with 0.1% Tween-20) with 3% milk for 15 minutes before the addition of the first antibody, mouse anti-IκBα (Santa Cruz). After overnight incubation, the PVDF membrane is washed 3 times with TBST and incubated with secondary antibodies coupled with horseradish peroxidase (Transduction Labs) for one hour. The PVDF membrane is then washed 3 times with TBST and protein is detected using an enhanced chemiluminescence detection system (Pierce).

| SMILES | result in Western analysis of IκBα |
| --- | --- |
| NS(=O)(=O)c1ccc(Nc2nccc(-c3ccc(Cl)s3)n2)cc1 [compound 4] | positive result |
| NS(=O)(=O)c1ccc(Nc2nccc(-c3ccc(C#Cc4ccccn4)s3)n2)cc1 [compound 35] | slightly positive result |
| O=S(=O)(NCCCO)c1ccc(Nc2nccc(-c3ccc(C(F)(F)F)cc3)n2)cc1 [compound 68] | positive result |
| COc1ccc(-c2ccnc(Nc3ccc(S(=O)(=O)NCCN(C)C)c(C(F)(F)F)c3)n2)cc1F [compound 167] | slightly positive result |
| COc1ccc(-c2ccnc(Nc3ccc(S(=O)(=O)NCCCN(C)C)c(Cl)c3)n2)cc1F [compound 173] | positive result |
| NS(=O)(=O)c1ccc(Nc2nccc(-c3ccc(/C=C/CO)cc3)n2)cc1 [compound 272] | positive result |
